Assay results as given in patent publication US20220332774A1, “THERAPEUTIC MITOCHONDRIAL PEPTIDES” (priority 2019, published 2022).

Experiments:
C2C12 Cells = assay: Glucose utilization in cultured C2C12 cells (myotubes); type: cell-based, mouse; details: glucose concentration in medium relative to untreated cells; 5 μM peptide, 22 h
In short: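 Differentiated mouse myotubes (5 days in 2% horse serum) serum-starved 5 h, then treated 22 h at 37 °C with peptide at 5 μM final (0.1% DMSO) in low-glucose (1 g/L) DMEM. Glucose remaining in medium measured colorimetrically at 570 nm. Expressed as percent of untreated control, from 2–3 experiments in triplicate.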

3T3-L1 Mouse Adipocytes = assay: Free fatty acid levels in cultured 3T3-L1 mouse adipocytes (isoproterenol stimulated); type: cell-based; details: free fatty acid in medium; 5 μM peptide, 20-22 h pre-incubation then 3 h with 0.1 nM isoproterenol; isoproterenol alone = 100%
In short: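 3T3-L1 cells differentiated 12 days, insulin withdrawn, then peptides added on day 13 at 5 μM (0.1% DMSO) for 20-22 h at 37° C. After 3 h in assay buffer, medium free fatty acids read at 540 nm. Values expressed as percent of 0.1 nM isoproterenol-alone control.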

H4-IIE Cells = assay: Glucose production in cultured H4-IIE cells; type: cell-based, rat; details: glucose concentration in medium relative to untreated cells; 5 μM peptide, 24 h
In short: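 Rat H4-IIE hepatoma cells primed overnight in glucose-free DMEM with 2 mM pyruvate and 10 mM lactate, then treated 24 h at 37 °C with 5 μM peptide (0.1% DMSO; concentration assumes ~2000 Da). Medium glucose measured colorimetrically at 570 nm. Values are percent of untreated-cell glucose production; 0.5-1 nM insulin served as inhibitor reference.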

| Substance | Percent of Control Activity (C2C12 Cells) [%] | Percent of Isoproterenol Control Activity (3T3-L1 Mouse Adipocytes) [%] | Percent of Control Activity (H4-IIE Cells) [%] |
| --- | --- | --- | --- |
| 102 (MPLRLEWVQWGVGGWPWVCC) [compound 102] | 102 | 120 | 108 |
| 103 (MPPKDKIWNLV) [compound 103] | 98 | 108 | 97 |
| 105 (MPRKCWLYPSRTN) [compound 105] | 114 | 91 | 118 |
| 106 (MPTNLPTLNST) [compound 106] | 101 | 98 | 107 |
| 107 (MPTPILIFRSPWSLYSYPT) [compound 107] | 110 | 104 | 96 |
| 108 (MQFTLATPKCYGPGA) [compound 108] | 96 | 102 | 104 |
| 109 (MQNPPHSSPHSSPLPRYSYLSPLLY) [compound 109] | 95 | 94 | 105 |
| 110 (MQPYRRYRFHPRLSMIYPTLQLM) [compound 110] | 110 | 93 | 108 |
| 111 (MQRWFFMSLVVVVVRA) [compound 111] | 101 | 89 | 91 |
| 112 (MQSGVLQSLAVTEIKYCNLL) [compound 112] | 93 | 103 | 144 |
| 113 (MQTKSLQSPQ) [compound 113] | 97 | 102 | 134 |
| 114 (MQWAILGLFVVG) [compound 114] | 107 | 76 | 118 |
| 116 (MSGVRKEVSLL) [compound 116] | 99 | 90 | 123 |
| 117 (MSKKIPATTMVLEWS) [compound 117] | 91 | 98 | 121 |
| 118 (MSLSYLQDSTY) [compound 118] | 83 | 98 | 126 |
| 119 (MSLTPHILPTMP) [compound 119] | 109 | 97 | 122 |
| 120 (MSMPVLGWQWG) [compound 120] | 98 | 95 | 118 |
| 121 (MSNMKTFSSA) [compound 121] | 99 | 118 | 95 |
| 122 (MSNNMAFSTFKG) [compound 122] | 103 | 113 | 97 |
| 123 (MSRNHSFCLNYMPIRFSLILFVVTH) [compound 123] | 88 | 104 | 106 |
| 124 (MSSAWIIWFRLFSI) [compound 124] | 96 | 113 | 97 |
| 125 (MSSDEFANTMPV) [compound 125] | 109 | 115 | 96 |
| 126 (MSTHLPNYHTNLSYR) [compound 126] | 110 | 108 | 87 |
| 127 (MSTINQQVIITLTVNPTQACS) [compound 127] | 109 | 104 | 88 |
| 128 (MSWSNIEVVNPIVDMDS) [compound 128] | 103 | 116 | 93 |
| 129 (MSYRAHTPKMLVMPFPY) [compound 129] | 110 | 115 | 90 |
| 130 (MTAPVKLQGVWM) [compound 130] | 103 | 110 | 97 |

| Substance | Percent of Control Activity (C2C12 Cells) [%] | Percent of Isoproterenol Control Activity (3T3-L1 Mouse Adipocytes) [%] | Percent of Control Activity (H4-IIE Cells) [%] |
| --- | --- | --- | --- |
| 131 (MTELLTPNWTNLSPY) [compound 131] | 107 | 110 | 97 |
| 133 (MTLGHNMIYLHTS) [compound 133] | 100 | 107 | 91 |
| 134 (MTNIFGVWAR) [compound 134] | 101 | 111 | 92 |
| 135 (MTNPENQNERKSVRFIHCPHNP) [compound 135] | 109 | 127 | 93 |
| 136 (MTNTLNSIHPPLP) [compound 136] | 99 | 124 | 94 |
| 137 (MTSLHNSFYSKDTSLRTPLMTP) [compound 137] | 116 | 115 | 96 |
| 138 (MTSPKIQNNNTPDHTANNQY) [compound 138] | 115 | 111 | 92 |
| 139 (MTWPTEQVTLGMTAQSYS) [compound 139] | 100 | 91 | 97 |
| 140 (MTYSPEQSQLQYMHQQTMFNQ) [compound 140] | 91 | 100 | 97 |
| 141 (MVEGWLLYLLVSMG) [compound 141] | 97 | 96 | 103 |
| 142 (MVEVGYNVVRVV) [compound 142] | 95 | 97 | 103 |
| 143 (MVGYLIPVWVLAIVCSDMLKPLS) [compound 143] | 98 | 107 | 111 |
| 144 (MVIICFEVSLISHCWVVISRLLM) [compound 144] | 105 | 96 | 105 |
| 145 (MVKPHLQNASI) [compound 145] | 103 | 94 | 102 |
| 146 (MVLEFGLVGYFLLGGGSGWV) [compound 146] | 106 | 97 | 99 |
| 147 (MVLFLLGMVG) [compound 147] | 107 | 99 | 98 |
| 148 (MVLNLRVHRLRRTNLQLLHTSPIIP) [compound 148] | 103 | 103 | 109 |
| 149 (MVLSSPPIFRMSCSLL) [compound 149] | 100 | 100 | 97 |
| 150 (MVLWWFGGSG) [compound 150] | 102 | 94 | 87 |
| 151 (MVNGRRTSVGV) [compound 151] | 95 | 81 | 90 |
| 152 (MVRMLLVQWW) [compound 152] | 110 | 105 | 89 |
| 153 (MVSMMTSMGM) [compound 153] | 104 | 93 | 91 |
| 154 (MVSSGDWYSWCE) [compound 154] | 107 | 89 | 98 |
| 155 (MVVCMVITFIWSCTKIFGA) [compound 155] | 107 | 97 | 95 |
| 156 (MVVHWMSGVGLPWLWGVGV) [compound 156] | 85 | 97 | 106 |
| 157 (MVVKGPLSEGGHPWGREGIWL) [compound 157] | 102 | 106 | 109 |
| 158 (MWEEAGRMSEGCLG) [compound 158] | 106 | 96 | 127 |
